The source made the active and inactive calls. The calls are words filed in the database; no cut-off is given here.
What was measured:
[1] = molecular target: T1, Angiotensin II receptor (AT-1) type-1 (Rattus norvegicus, UniProt P29089+P25095); assay: Binding affinity expressed as IC50 to the Angiotensin II receptor, type 1, from rat liver membrane
T1 sequence (P29089 whole entry): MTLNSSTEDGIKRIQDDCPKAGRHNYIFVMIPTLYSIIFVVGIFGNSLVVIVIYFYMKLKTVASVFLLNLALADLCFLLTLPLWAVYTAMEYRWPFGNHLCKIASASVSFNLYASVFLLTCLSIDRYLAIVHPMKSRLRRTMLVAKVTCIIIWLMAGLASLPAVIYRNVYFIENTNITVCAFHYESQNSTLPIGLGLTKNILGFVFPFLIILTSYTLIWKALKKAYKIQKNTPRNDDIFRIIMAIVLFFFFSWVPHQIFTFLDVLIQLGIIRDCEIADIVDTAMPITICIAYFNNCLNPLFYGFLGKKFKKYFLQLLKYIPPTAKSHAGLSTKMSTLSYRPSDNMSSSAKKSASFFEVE
T1 sequence (P25095 whole entry): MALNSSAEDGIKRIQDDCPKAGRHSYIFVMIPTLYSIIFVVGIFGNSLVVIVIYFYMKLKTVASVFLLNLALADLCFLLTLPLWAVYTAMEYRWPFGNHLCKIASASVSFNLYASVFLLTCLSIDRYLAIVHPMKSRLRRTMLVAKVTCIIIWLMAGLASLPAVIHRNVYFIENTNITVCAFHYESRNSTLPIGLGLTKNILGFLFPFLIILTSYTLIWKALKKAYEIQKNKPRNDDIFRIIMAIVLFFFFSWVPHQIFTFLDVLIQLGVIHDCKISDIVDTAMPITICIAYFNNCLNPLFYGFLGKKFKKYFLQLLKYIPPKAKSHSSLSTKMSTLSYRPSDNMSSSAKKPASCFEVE

Rattus norvegicus [2] = assay: The compound was tested for antihypertensive activity in Renal Hypertensive Rats(RHR) at 30 mg/Kg dose after oral administration; inactive; type: functional, organism-based
[3] = molecular target: Angiotensin II receptor (AT-1) type-1 (Rattus norvegicus) (UniProt P29089+P25095); assay: Antihypertensive activity in renal hypertensive rats (RHR) at 30 mg/Kg dose after oral administration; type: functional, organism-based
[4] = molecular target: Angiotensin II receptor type-1 (Oryctolagus cuniculus) (UniProt P34976); assay: Inhibition of angiotensin II induced contraction in rabbit aortic ring, activity is expressed as IC50
Angiotensin II receptor type-1 (Oryctolagus cuniculus), sequence (P34976 whole entry, looked up): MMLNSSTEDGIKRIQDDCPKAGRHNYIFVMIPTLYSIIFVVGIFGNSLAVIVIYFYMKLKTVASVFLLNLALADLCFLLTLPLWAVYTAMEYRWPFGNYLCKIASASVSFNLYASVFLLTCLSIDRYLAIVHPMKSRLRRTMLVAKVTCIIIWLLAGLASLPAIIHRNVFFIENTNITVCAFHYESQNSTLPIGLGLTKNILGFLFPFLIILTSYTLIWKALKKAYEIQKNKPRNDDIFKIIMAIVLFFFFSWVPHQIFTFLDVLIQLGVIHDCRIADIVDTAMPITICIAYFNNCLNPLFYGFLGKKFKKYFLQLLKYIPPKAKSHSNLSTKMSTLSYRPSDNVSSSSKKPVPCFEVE

Rattus norvegicus [5] = assay: The compound was tested for antihypertensive activity in Renal Hypertensive Rats(RHR) at following doses after oral administration. of 10 mg/kg; type: functional
Rattus norvegicus [6] = assay: The compound was tested for antihypertensive activity in Renal Hypertensive Rats(RHR) at 10 mg/Kg dose after oral administration; type: functional
Monkey [7] = assay: Minimum blood pressure was determined at 10 mg/kg in salt-deplete Normotensive Monkeys; type: functional, Cercopithecidae
Monkey [8] = assay: blood pressure determined at 10 mg/kg in salt-deplete Normotensive Monkeys; type: functional, Cercopithecidae
Monkey [9] = assay: Baseline blood pressure was determined at 10 mg/kg in salt-deplete Normotensive Monkeys; type: functional, Cercopithecidae
Monkey [10] = assay: Blood pressure determined at 10 mg/kg in salt-deplete Normotensive Monkeys; type: functional, Cercopithecidae

| SMILES | IC50 [1] | IC50 [4] | Maximum blood pressure change [3] | further results |
| --- | --- | --- | --- | --- |
| CCCCc1ncc(/C=C2\C(=O)NC(=O)N2Cc2cccs2)n1Cc1ccc(C(=O)O)cc1 | 2.6 nM |  |  | Max (Rattus norvegicus [2]): inactive |
| CCCCc1ncc(/C=C2/C(=O)N(CCCC)C(=O)N2Cc2ccsc2)n1Cc1ccc(C(=O)O)cc1 | 0.9 nM | 10 nM | -42% | Max (Rattus norvegicus [5]): -28% |
| CCCCc1ncc(/C=C2\C(=O)NC(=O)N2CCCC)n1Cc1ccc(C(=O)O)cc1 |  | 44 nM |  | Max (Rattus norvegicus [2]): inactive |
| CCCCc1ncc(/C=C2/C(=O)N(CCCC)C(=O)N2CCCC)n1Cc1ccc(C(=O)O)cc1 | 1.3 nM | 14 nM | -45% | Max (Rattus norvegicus [6]): -21% |
| CCCCc1ncc(/C=C2/C(=O)NC(=O)N2Cc2ccc(Cl)cc2)n1Cc1ccc(C(=O)O)cc1 | 3 nM | 28 nM | -17% |  |
| CCCCc1ncc(/C=C2/C(=O)N(CCCC)C(=O)N2Cc2csc(C)c2)n1Cc1ccc(C(=O)O)cc1 | 0.7 nM | 9.2 nM | -23% | Max (Rattus norvegicus [5]): -28% |
| CCCCCCN1C(=O)/C(=C/c2cnc(CCCC)n2Cc2ccc(C(=O)OC)cc2)N(Cc2csc(C)n2)C1=O | 5.3 nM | > 100 nM | -34% |  |
| CCCCc1ncc(/C=C2/C(=O)NC(=O)N2CCCC)n1Cc1ccc(C(=O)OC)cc1 | 3.5 nM | 30 nM | -11% |  |
| CCCCc1ncc(/C=C2/C(=O)N(CCCC)C(=O)N2Cc2csc(N)n2)n1Cc1ccc(C(=O)OC)cc1 | 1.2 nM | 290 nM | -37% | Max (Rattus norvegicus [6]): -39% |
| CCCCc1ncc(/C=C2/C(=O)N(CCCC)C(=O)N2Cc2csc(C)n2)n1Cc1ccc(C(=O)OC)cc1 | 3.8 nM | 350 nM | -40% | Max (Rattus norvegicus [6]): -25%; Blood pressure (Monkey [7]): 74 mmHg; Blood pressure (Monkey [8]): 88 mmHg; Blood pressure (Monkey [9]): 101 mmHg |
| CCCCc1ncc(/C=C2/C(=O)N(CCCC)C(=O)N2Cc2ccc(C)s2)n1Cc1ccc(C(=O)O)cc1 | 0.6 nM | 5.3 nM | -22% |  |
| CCCCc1ncc(/C=C2/C(=O)N(CCCC)C(=O)N2Cc2csc(C)n2)n1Cc1ccc(C(=O)O)cc1Cl |  |  |  | Blood pressure (Monkey [7]): 80 mmHg; Blood pressure (Monkey [10]): 85 mmHg; Blood pressure (Monkey [9]): 100 mmHg |
| CCCCc1ncc(/C=C2/C(=O)N(CCCC)C(=O)N2Cc2cccs2)n1Cc1ccc(C(=O)OC)cc1 | 3.4 nM | 370 nM | -28% |  |
| CCCCc1ncc(/C=C2/C(=O)N(CCCC)C(=O)N2Cc2csc(N)n2)n1Cc1ccc(C(=O)O)cc1 | 0.6 nM | 2.9 nM |  | Max [3]: inactive |

Now from value to molecule, other results behind:

| IC50 [1] | IC50 [4] | SMILES | Maximum blood pressure change [3] | further results |
| --- | --- | --- | --- | --- |
| 8.5 nM | 460 nM | CCCCc1ncc(/C=C2/C(=O)N(CCCC)C(=O)N2CCCC)n1Cc1ccc(C(=O)OC)cc1 | -27% |  |
| 10.1 nM | > 100 nM | CCCCc1ncc(/C=C2/C(=O)N(CCCC)C(=O)N2Cc2ccno2)n1Cc1ccc(C(=O)OC)cc1 | -23% |  |
| 7.1 nM | 40 nM | CCCCc1ncc(/C=C2/C(=O)NC(=O)N2CCCC)n1Cc1ccc(-c2nn[nH]n2)cc1 | 0% |  |
| 8.3 nM | > 100 nM | CCCCc1ncc(/C=C2/C(=O)N(CCCC)C(=O)N2Cc2ccoc2)n1Cc1ccc(C(=O)OC)cc1 | -22% |  |
| 0.7 nM | 13 nM | CCCCc1ncc(/C=C2/C(=O)N(CCCC)C(=O)N2Cc2cccs2)n1Cc1ccc(C(=O)O)cc1 | -28% |  |
| 2.3 nM | 18 nM | CCCCc1ncc(/C=C2/C(=O)NC(=O)N2Cc2cccs2)n1Cc1ccc(C(=O)O)cc1 | -21% |  |
| 2.8 nM | 28 nM | CCCCc1ncc(/C=C2/C(=O)NC(=O)N2CCCC)n1Cc1ccc(C(=O)O)cc1 | -17% |  |

Source: ChEMBL document CHEMBL1128555, “Derivatives of 5-[[1-(4'-carboxybenzyl)imidazolyl]methylidene]hydantoins as orally active angiotensin II receptor antagonists” (J Med Chem, 1995)
